Read-outs that look alike come from different tables or passages of the source.
What was measured:
Caco-2 cell monolayers [1] = test system: Caco-2 cell monolayers
Caco-2 cell monolayers [2] = assay: Caco-2 cell permeability assay of peramivir with permeability enhancers; details: for Fold-Enhancement Over Control / ng peramivir transported/min: peramivir 15 μg/mL
Caco-2 cells = assay: cytotoxicity of PPS at the concentrations used; type: cell-based; details: in the concentrations used (0.001% to 0.01%)
[3] = human, in vivo; cited from earlier work
influenza A and B = details: oral formulation, phase III clinical trial; cited from earlier work
viral neuraminidase = details: depending on the influenza strain; based on concentrations required for 50% inhibition of neuraminidase activity in vitro; cited from earlier work
[4] = test system: avian influenza virus (H5N1); details: cited from earlier work
[5] = enhancer concentration 0.05% in HBSS
[6] = enhancer concentration 0.10% in HBSS
[7] = enhancer concentration 0.20% in HBSS

Q: With `OCC(O)CO` [Glycerol, glycerol] as the compound, how does the “peramivir permeability (in words)” value (Caco-2 cell monolayers [1]) read?
A: substantial increase in peramivir permeability

Q: What about the peramivir permeability enhancement (Caco-2 cell monolayers [1]; human) of the same compound?
A: Less than 150%

Q: For `CN1CCNCC1` [N-Methylpiperazine, N-methylpiperazine], which “peramivir permeability enhancement in Caco-2 cell assays (in words)” value (Caco-2 cell monolayers [2]) is on record?
A: negative

Q: For `CCCCCCCCCCCCCCCC[N+](C)(C)CCCS(=O)(=O)[O-]` [PPS, 3-(N,N-dimethylpalmitylammonio)propane sulfonate], which “peramivir permeability (in words)” value (Caco-2 cell monolayers [2]; PPS varying from 0.001% to 0.01% final concentration) is on record?
A: substantially increased peramivir permeability

Q: And the cytotoxicity (Caco-2 cells)?
A: not cytotoxic

Q: Which “peramivir permeability enhancement in Caco-2 cell assays (in words)” value (Caco-2 cell monolayers [2]) does the source give for `CCCCCCCC/C=C\CCCCCCCC(=O)OCCOCC(OCCO)C1OCC(OCCO)C1OCCO` (stereo not drawn) [Tween-80] here?
A: negative

Q: What does the source list for `CCC(CC)[C@H](NC(C)=O)[C@@H]1[C@H](O)[C@@H](C(=O)O)C[C@H]1NC(=N)N` [peramivir, (1S,2S,3S,4R)-3-[(1S)-1-Acetamido-2-ethyl-butyl]-4-(diaminomethylideneamino)-2-hydroxy-cyclopentane-1-carboxylic acid]?
A: oral bioavailability [3]: very poor oral bioavailability; antiviral activity against influenza A and B (influenza A and B): did not reach statistical significance; potency as neuraminidase inhibitor relative to oseltamivir (Tamiflu®) and zanimivir (viral neuraminidase): 2 to 10 times; sensitivity to peramivir [4]: sensitive

Q: With `O=C([O-])c1ccccc1O.[Na+]` [sodium salicylate] as the compound, how does the “peramivir permeability enhancement in Caco-2 cell assays (in words)” value (Caco-2 cell monolayers [2]) read?
A: negative

Q: Which “peramivir permeability enhancement in Caco-2 cell assays (in words)” value (Caco-2 cell monolayers [2]) does the source give for phosphatidylcholine here?
A: some potential for peramivir permeability enhancement

Q: What about the “Fold-Enhancement Over Control” value (Caco-2 cell monolayers [2]; [5]) of the same compound?
A: 2.11 fold

Q: And the ng peramivir transported/min (Caco-2 cell monolayers [2]; [5])?
A: 0.4 ng/min

Q: And the “Fold-Enhancement Over Control” value (Caco-2 cell monolayers [2]; [6])?
A: 2.11 fold

Q: What about the ng peramivir transported/min (Caco-2 cell monolayers [2]; [6]) of the same compound?
A: 0.4 ng/min

Q: And the “Fold-Enhancement Over Control” value (Caco-2 cell monolayers [2]; [7])?
A: 7 fold

Q: What about the ng peramivir transported/min (Caco-2 cell monolayers [2]; [7]) of the same compound?
A: 1.33 ng/min
